The CheMixHub ionic liquid set

Experiment: xn = mol fraction of the nth substance listed

NC(N)=NCCC[C@H](N)C(=O)O + CCCC[N+](C)(CCCC)CCCC.[Cl-] + O
viscosity [mPa·s], 101.3 kPa
Conditions	293.15 K	298.15 K	303.15 K	308.15 K	313.15 K
x1 = 0.0003636, x2 = 0.00072	1.06	0.94	0.85	0.76	0.69
x1 = 0.0003667, x2 = 0.001439	1.1	0.98	0.88	0.79	0.72
x1 = 0.0007271, x2 = 0.0007198	1.07	0.95	0.86	0.78	0.7
x1 = 0.0007335, x2 = 0.001438	1.11	0.99	0.89	0.8	0.73
x1 = 0.001088, x2 = 0.0007195	1.08	0.97	0.87	0.79	0.71
x1 = 0.001096, x2 = 0.001438	1.12	1	0.9	0.82	0.75
x1 = 0.001452, x2 = 0.0007192	1.1	0.98	0.88	0.8	0.72
x1 = 0.001464, x2 = 0.001437	1.13	1.01	0.91	0.83	0.76
x1 = 0.001809, x2 = 0.001437	1.15	1.02	0.92	0.84	0.77
x1 = 0.001816, x2 = 0.000719	1.11	0.99	0.89	0.81	0.73
x1 = 0.002177, x2 = 0.0007187	1.12	1	0.9	0.82	0.75
x1 = 0.002195, x2 = 0.001436	1.16	1.04	0.94	0.85	0.78
x1 = 0.002535, x2 = 0.0007185	1.13	1.02	0.92	0.84	0.76
x1 = 0.00256, x2 = 0.001436	1.17	1.05	0.95	0.87	0.79

O=C([O-])c1ccccc1.[Na+] + CCOS(=O)(=O)[O-].CC[n+]1ccn(C)c1 + O
viscosity [mPa·s], 101.3 kPa
Conditions	293.15 K	298.15 K	303.15 K	308.15 K	313.15 K
x1 = 0.0001784, x2 = 0	1.009	0.897	0.803	0.727	0.651
x1 = 0.0001804, x2 = 0.001795	1.079	0.966	0.851	0.757	0.685
x1 = 0.0001842, x2 = 0.002697	1.114	0.994	0.883	0.795	0.716
x1 = 0.0001899, x2 = 0.003589	1.144	1.024	0.907	0.819	0.735
x1 = 0.0005403, x2 = 0	1.014	0.903	0.809	0.733	0.657
x1 = 0.0005539, x2 = 0.001794	1.086	0.973	0.858	0.764	0.692
x1 = 0.0005579, x2 = 0.002696	1.121	1.001	0.89	0.802	0.723
x1 = 0.0005619, x2 = 0.003587	1.151	1.032	0.915	0.827	0.743
x1 = 0.0009002, x2 = 0	1.019	0.908	0.814	0.738	0.662
x1 = 0.0009234, x2 = 0.001794	1.092	0.979	0.864	0.77	0.698
x1 = 0.0009314, x2 = 0.002695	1.128	1.008	0.897	0.809	0.73
x1 = 0.0009412, x2 = 0.003586	1.158	1.039	0.922	0.834	0.75
x1 = 0.001258, x2 = 0	1.024	0.913	0.819	0.743	0.667
x1 = 0.001287, x2 = 0.001793	1.098	0.984	0.869	0.776	0.703
x1 = 0.001299, x2 = 0.002694	1.134	1.014	0.903	0.815	0.737
x1 = 0.001311, x2 = 0.003585	1.165	1.047	0.929	0.841	0.757
x1 = 0.001619, x2 = 0	1.029	0.918	0.824	0.748	0.672
x1 = 0.001651, x2 = 0.001792	1.103	0.99	0.875	0.781	0.709
x1 = 0.001674, x2 = 0.002693	1.14	1.02	0.91	0.821	0.742
x1 = 0.001689, x2 = 0.003583	1.172	1.053	0.936	0.848	0.764
x1 = 0.001978, x2 = 0	1.034	0.923	0.829	0.753	0.677
x1 = 0.002025, x2 = 0.001792	1.108	0.997	0.881	0.786	0.715
x1 = 0.002045, x2 = 0.002692	1.146	1.027	0.915	0.827	0.748
x1 = 0.002068, x2 = 0.003582	1.178	1.059	0.943	0.854	0.77

C[N+](C)(C)CCC[n+]1ccccc1.N#C[N-]C#N.N#C[N-]C#N + CCO
viscosity [mPa·s], 100 kPa
Conditions	x1 = 0.0999	x1 = 0.2001	x1 = 0.3002	x1 = 0.3999	x1 = 0.5002	x1 = 0.6001	x1 = 0.7003	x1 = 0.7998	x1 = 0.8995	x1 = 1
293.15 K	6.55	15.6	38	75.8	137	243	391	614	1038	2191
303.15 K	5.09	11.8	25.6	49.2	88.3	138	205	291	435	830
313.15 K	4.23	9.28	20.7	34.4	58.2	84.3	119	161	229	386
323.15 K	3.55	7.47	15.7	25.2	38.9	56.2	75.8	99	134	210
333.15 K	3.1	6.12	11.9	18	28	39.6	51.4	65.1	85.3	127

CCCCCC[n+]1ccn(C)c1.[Cl-] + CCCCCO
101 kPa
Conditions	viscosity [mPa·s]
293.15 K, x1 = 0.0088	4.33
293.15 K, x2 = 0.849	10.53
303.15 K, x1 = 0.0042	3.1
303.15 K, x1 = 0.0166	3.41
303.15 K, x2 = 0.1514	1675
313.15 K, x1 = 0.0042	2.37
313.15 K, x2 = 0.2971	259.6
313.15 K, x2 = 0.8012	8.12
323.15 K, x2 = 0	783
323.15 K, x2 = 0.8012	6.29
333.15 K, x2 = 0.7018	9.13

CCCCCC[n+]1ccn(C)c1.[Cl-] + CN(C)C=O
101 kPa
Conditions	viscosity [mPa·s]
288.15 K, x2 = 0.2751	230
308.15 K, x2 = 0.6856	9.1

C[N+](C)(C)CCC[n+]1ccccc1.N#C[N-]C#N.N#C[N-]C#N + CC#N
100 kPa
Conditions	viscosity [mPa·s]
283.15 K, x1 = 0.7001	857
288.15 K, x1 = 0.8997	1336
288.15 K, x1 = 1	3879
293.15 K, x1 = 0.1999	10.8
293.15 K, x1 = 0.3997	75.8
293.15 K, x1 = 1	2191
298.15 K, x1 = 0.8997	561
303.15 K, x1 = 0.0999	3
303.15 K, x1 = 0.2998	24.3
303.15 K, x1 = 0.7998	271
308.15 K, x1 = 0.1999	7.71
318.15 K, x1 = 0.2998	16
323.15 K, x1 = 0.0999	2.43
323.15 K, x1 = 1	210
333.15 K, x1 = 0.1999	5.08
333.15 K, x1 = 0.6002	37.6

CC[n+]1ccn(C)c1.O=S(=O)([O-])C(F)(F)C(F)F + CCCC[n+]1ccc(C)cc1.O=S(=O)([N-]S(=O)(=O)C(F)(F)F)C(F)(F)F
100 kPa
Conditions	viscosity [mPa·s]
293.15 K, x2 = 0.2211	111.1
293.15 K, x2 = 0.3324	106.5
293.15 K, x2 = 0.4432	101
293.15 K, x2 = 0.774	84.5
303.15 K, x2 = 0.3324	66.1
303.15 K, x2 = 0.9517	47.6
313.15 K, x2 = 0.0504	47.7
313.15 K, x2 = 0.112	47
313.15 K, x2 = 0.4432	41.7
313.15 K, x2 = 0.6631	37.5
323.15 K, x2 = 0.4432	29.2
333.15 K, x2 = 0.4432	21.5
333.15 K, x2 = 0.5529	20.3
333.15 K, x2 = 0.6631	19.5
343.15 K, x2 = 0.0504	18.2
353.15 K, x2 = 0.774	10.9
353.15 K, x2 = 0.8828	10.3
